Experimental data: patent US20240182526A1, “COMPOSITIONS AND METHODS FOR MODULTING INFLAMMATORY AND DEGENERATIVE DISORDER” (University of Southern California, priority 2021, published 2024)
“Also recorded” adds a separate entry of the source.

What was measured:
pNF-κB p65 = experiment: Western blot of pNF-κB p65 in pig articular chondrocytes; format: cell-based; details: pig articular chondrocytes, OSM, 24 hours
Experimental: (§1) For standard western blot, treated and non-treated cells were lysed in RIPA Lysis and Extraction Buffer (Pierce, Rockford, IL) containing protease inhibitors (Pierce) followed by sonication with a 15-second pulse at a power output of 2 using the VirSonic 100 (SP Industries Company, Warminster, PA). Protein concentrations were determined by BCA protein assay (Pierce). Proteins were resolved with SDS-PAGE utilizing 4-15% Mini-PROTEAN TGX Precast Gels and transferred to Trans-Blot Turbo Transfer Packs with a 0.2-μm pore-size nitrocellulose membrane. The SDS-PAGE running buffer, 4-15% Mini-PROTEAN TGX Precast Gels, Trans-Blot Turbo Transfer Packs with a 0.2-μm pore-size nitrocellulose membrane was purchased from Biorad (Hercules, CA). Nitrocellulose membranes were blocked in 5% nonfat milk in 0.05% (v/v) Tween 20 (PBST) (Corning, Manassas, VA). Membranes were then incubated with primary antibodies p-gp130 Y814 (Evseenko lab, AbClonal), p-AKT (cat #4060, Cell Signaling), p-ERK 1/2 (cat #9106, Cell Signaling), p-Y416-SRC (cat #1246F, Novus Biologicals), p-gp130 (cat #1453R, Bioss USA) and p-NFκBp65 (cat #8242, Cell Signaling), and/or YAP1 (cat #4912, Cell Signaling). Histone H3 (cat #9515, Cell Signaling) was used as loading control. After washing in PBS containing 0.05% (v/v) Tween 20 (PBST), membranes were incubated with rabbit (cat #31460, Thermo Scientific) or mouse IgG-HRP (cat #31430, Thermo Scientific) secondary antibodies. After washing, membranes were developed with the Clarity Western ECL Blotting Substrate (Hercules, CA). Quantification of blots was performed using ImageJ 1.44 followed by Prism9 for analysis.

[1] = system: cleaved ACAN and COL2 neoepitopes; experiment: Neoepitope assay on pig articular cartilage explants stimulated with OSM; format: cell-based; details: 72 hours, normalized to wet weight
Experimental: Neoepitope analysis. WT and F814 mouse articular cartilage explants were treated with or without OSM (10 ng/mL). Pig articular cartilage explants were stimulated with or without OSM (10 ng/mL) and treated with or without peptide QQpYF (100 μg/mL or 300 μg/mL). For R805 treatment, pig articular cartilage explants were stimulated with or without OSM (10 ng/mL) and treated with or without R805 (0.01, 0.1, 1 or 10 μM). The explants were then digested for 2 hr at 37° C. with 0.01 units chondroitinase ABC (Sigma Aldrich, St. Louis, MO). Samples were then dialyzed with ultrapure water for 24 hr at 4° C., freeze dried, dissolved in RIPA Lysis and Extraction Buffer (Pierce, IL) containing protease inhibitors (Pierce) followed by sonication. Proteins were separated and analyzed by Western blot using primary antibodies against aggrecan (cat #NB100-74350, Novus Biologicals,) and collagen II neoepitopes (cat #50-1035, Ibex). Wet weight of explants was used as loading control.

[2] = system: pro-inflammatory signaling in osteoarthritic chondrocytes; experiment: Western blot of pro-inflammatory signaling proteins in osteoarthritic chondrocytes; format: cell-based, human; details: 4 and 24 hours
Experimental: as §1, with “After washing in PBS containing 0.05% (v/v) Tween 20 (PBST), membranes were incubated with rabbit (cat #31460, Thermo Scientific) or mouse IgG-HRP (cat #31430, Thermo Scientific) secondary antibodies. After washing, membranes were developed with the Clarity Western ECL Blotting Substrate (Hercules, CA).” left out

[3] = system: rat medial meniscal tear model; experiment: Rat medial meniscal tear model of osteoarthritis; format: in vivo; details: 6 weeks post-surgery
Experimental: Immunohistochemistry. Histological staining for was performed on wild type (WT) mice, F814 mice and all mice that underwent destabilization of the medial meniscus (DMM). Six weeks after surgery, mice were sacrificed and joints were fixed in 10% formalin, decalcified in 10% EDTA and embedded in paraffin. For rat model, 6 weeks after partial medial meniscectomy (PMM), rats were sacrificed and joints were fixed in 10% formalin, decalcified in 10% EDTA and embedded in paraffin. A total of three 8 μm thick sections were made at a 200 μm interval by coronal sectioning. For canine model, 4 and 16 weeks after medial meniscal release (MMR), dogs were sacrificed and joints were fixed in 10% formalin, decalcified in 10% EDTA and embedded in paraffin. No animals were excluded from analysis. A microtome (Leica) was used to cut 5-μm sections for joints. H&E staining was performed to assess morphology. Safranin O/Fast Green staining, immunohistochemistry for proteolytic enzymes and Osteoarthritis Research Society International (OARSI) scoring was performed as described (41, 42). For OARSI scoring, observers performing the analysis were blinded as whether the slides were from treated or control animals. The stained samples were visually observed using LSCM (Zeiss LSM710, Carl Zeiss, Germany).
Rat model of osteoarthritis. All experiments were conducted ethically. […]

`Cc1ccc(-c2csc(NC(=O)c3ccccn3)n2)cc1` [Peptide R805] was tested. Which “protein levels of pNF-κB p65 after OSM stimulation” value (pNF-κB p65) did it give?
The value was “markedly suppressed”.

And the “matrix degeneration: levels of cleaved ACAN and COL2 neoepitopes” value [1]?
The value was “able to decrease; also recorded: protective effect on OSM-induced cartilage degeneration in vitro”.

And the “pro-inflammatory signaling in diseased tissue” value [2]?
The value was “markedly suppressed; also recorded: prevents pro-inflammatory signaling in diseased tissue”.

And the “cartilage thickness and stiffness (indentation mapping)” value ([3]; femoral condyle)?
Its value is “maintained thickness and reduced stiffness in rat cartilage”.

What about the “cartilage degeneration (Safranin O histology)” value ([3]; weekly intra-articular injection) of the same compound?
Its value is “dramatically reduces the appearance of OA in rat and canine models; also recorded: prominent protective effects; also recorded: reduces cartilage degeneration”.
